Like-named read-outs stand apart in the source and are kept apart here.
Target: T1, Human Recombinant Matriptase 2 (Homo sapiens, UniProt Q8IU80)
T1 construct: made in house
T1 sequence (Q8IU80 1-811): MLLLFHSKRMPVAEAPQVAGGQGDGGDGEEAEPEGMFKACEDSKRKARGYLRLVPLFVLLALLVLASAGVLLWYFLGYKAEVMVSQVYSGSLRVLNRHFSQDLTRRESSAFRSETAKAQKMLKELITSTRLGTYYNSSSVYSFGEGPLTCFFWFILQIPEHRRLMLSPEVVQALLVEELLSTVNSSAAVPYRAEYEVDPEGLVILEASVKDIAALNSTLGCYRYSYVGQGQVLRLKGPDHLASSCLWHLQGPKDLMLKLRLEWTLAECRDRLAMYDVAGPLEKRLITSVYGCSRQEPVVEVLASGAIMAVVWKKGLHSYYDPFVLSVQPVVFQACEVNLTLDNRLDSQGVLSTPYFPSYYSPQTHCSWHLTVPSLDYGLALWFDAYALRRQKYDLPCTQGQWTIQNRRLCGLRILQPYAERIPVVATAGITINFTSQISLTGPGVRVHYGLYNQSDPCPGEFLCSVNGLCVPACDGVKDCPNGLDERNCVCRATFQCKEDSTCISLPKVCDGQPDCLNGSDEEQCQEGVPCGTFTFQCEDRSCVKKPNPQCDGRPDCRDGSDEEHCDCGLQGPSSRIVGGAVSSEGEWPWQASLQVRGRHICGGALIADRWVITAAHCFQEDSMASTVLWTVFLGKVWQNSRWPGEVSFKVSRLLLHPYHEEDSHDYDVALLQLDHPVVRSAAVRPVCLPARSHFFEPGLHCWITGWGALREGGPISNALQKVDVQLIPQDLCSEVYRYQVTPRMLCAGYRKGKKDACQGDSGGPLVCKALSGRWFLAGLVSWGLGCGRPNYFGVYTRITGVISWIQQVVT
Assay: Matriptase 2 inhibition, fluorescence based assay (Method I)
Format: biochemical
Method in brief: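 Fluorogenic readout (Ex 360/Em 480 nm) taken 60 min after adding 62 μM Boc-Gln-Ala-Arg-AMC, following 30-min enzyme–compound preincubation at 25 °C. Conditions: 3.5 nM in-house enzyme, pH 7.5 Tris/NaCl/gelatin buffer, 1% DMSO; percent inhibition versus concentration fitted by variable-slope sigmoidal regression.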

[1] = Table A, Ki of Matriptase-2, read-out: Mat-2 Ki
[2] = Table A, Ki of Matriptase-2 given as class symbols, read-out: Mat-2 Ki
[3] = Table B, Human Recombinant Matriptase 2, 3.5 nM enzyme, 62 μM substrate, 30 mins preincubation, read-out: Mean Ki

SMILES | Ki [1] | Ki [2] | further results
Cn1ccnc1COC(=O)c1cc2ccc(CN)nc2n1Cc1cc(NS(=O)(=O)Cc2ccccc2)cc2ccccc12 [Compound 137, (1-methyl-1H-imidazol-2-yl)methyl 6-(amino-methyl)-1-{[3-(phenyl-methanesulfonamido)-naphthalen-1-yl]methyl}-1H-pyrrolo[2,3-b]pyr-idine-2-carboxylate] | ≤ 100 nM | – | –
CNC12CC(COC(=O)c3cc4ccc(CN)nc4n3Cc3cc(NS(=O)(=O)Cc4c(C)cccc4C)cc4ccccc34)(C1)C2 [Compound 2.34] | – | – | Ki [3]: ≤ 100 nM
NCc1ccc2cc(-c3ncn[nH]3)n(Cc3cc(NS(=O)(=O)Cc4ccccc4)cc4ccccc34)c2n1 [Compound 352] | – | ≤ 100 nM | –
N#Cc1ccc(OC(=O)c2cc3ccc(CN)nc3n2Cc2cc(NS(=O)(=O)Cc3ccccc3)cc3ccccc23)cc1 [Compound 125, 4-cyanophenyl 6-(aminomethyl)-1-{[3-(phenylmethanesulfon-amido)naphthalen-1-yl]-methyl}-1H-pyrrolo-[2,3-b]pyridine-2-car-boxylate] | 500 to 3000 nM | – | –
CCOC(=O)c1cc2ccc(CN)nc2n1Cc1cc(NS(=O)(=O)[C@@H](C)c2ccccc2)cc2ccccc12 (racemic) [Compound 119, ethyl 6-(aminomethyl)-1-{[3-(1-phenylethanesul-fonamido)naphthalen-1-yl]methyl}-1H-pyrrolo-[2,3-b]pyridine-2-car-boxylate] | 500 to 3000 nM | – | –
C[C@@H](COC(=O)c1cc2ccc(CN)nc2n1Cc1cc(NS(=O)(=O)Cc2ccccc2)cc2ccccc12)N(C)C [Compound 27, (2S)-2-(dimethylamino)-propyl 6-(aminomethyl)-1-{[3-(phenylmethane-sulfonamido)naphthalen-1-yl]methyl}-1H-pyr-rolo[2,3-b]pyridine-2-carboxylate] | ≤ 100 nM | – | –
CN1CCC[C@@H]1COC(=O)Nc1cc(Cn2c(C(=O)O)cc3ccc(CN)nc32)c2ccccc2c1 (racemic) [Compound 335, 6-(aminomethyl)-1-{[3-({[(1-methylpyrrolidin-2-yl)methoxy]carbon-yl}amino)naphthalen-1-yl]methyl}-1H-pyrrolo-[2,3-b]pyridine-2-car-boxylic acid] | – | 100 to 500 nM | –
CC(C)(C)OC(=O)N1CC[C@H](S(=O)(=O)Nc2cc(Cn3c(C(=O)O)cc4ccc(CN)nc43)c3ccccc3c2)C1 [Compound 268] | – | 100 to 500 nM | –
CC(C)(C)n1cnc(COC(=O)c2cc3ccc(CN)nc3n2Cc2cc(NS(=O)(=O)Cc3ccccc3)cc3ccccc23)c1 [Compound 96, (1-tert-butyl-1H-imid-azol-4-yl)methyl 6-(aminomethyl)-1-{[3-(phenylmethanesulfon-amido)naphthalen-1-yl]-methyl}-1H-pyrrolo[2,3-b]pyridine-2-carboxylate] | 100 to 500 nM | – | –
NCc1ccc2cc(C(=O)OC[C@H]3COCCN3)n(Cc3cc(NS(=O)(=O)Cc4ccccc4)cc4ccccc34)c2n1 [Compound 22, [(3R)-morpholin-3-yl]-methyl 6-(aminomethyl)-1-{[3-(phenylmethane-sulfonamido)naphthalen-1-yl]methyl}-1H-pyr-rolo[2,3-b]pyridine-2-carboxylate] | ≤ 100 nM | – | –
CNC12CC(COC(=O)c3cc4ccc(CN)nc4n3Cc3cc(NS(=O)(=O)Cc4ccccc4)cc4ccccc34)(C1)C2 [Compound 2.41] | – | – | Ki [3]: ≤ 100 nM
NCc1ccc2cc(C(=O)O)n(Cc3cc(NS(=O)(=O)C[C@H]4CCOC4)cc4ccccc34)c2n1 (racemic) [Compound 262, rac-6-(aminomethyl)-1-[(3-{[(3R)-oxolan-3-yl]-methanesulfonamido}-naphthalen-1-yl)methyl]-1H-pyrrolo[2,3-b]pyr-idine-2-carboxylic acid] | – | 100 to 500 nM | –
C[C@@H]1CN(C(=O)Nc2cc(Cn3c(C(=O)O)cc4ccc(CN)nc43)c3ccccc3c2)C[C@H](C)N1 [Compound 304, 6-(aminomethyl)-1-[(3-{[(3R,5S)-3,5-dimeth-ylpiperazine-1-carbon-yl]amino}naphthalen-1-yl)methyl]-1H-pyrrolo-[2,3-b]pyridine-2-car-boxylic acid] | – | 500 to 3000 nM | –
NCc1ccc2cc(C(=O)O)n(Cc3cc(NS(=O)(=O)[C@H]4CCOC4)cc4ccccc34)c2n1 [Compound 280, 6-(aminomethyl)-1-({3-[(3S)-oxolane-3-sulfon-amido]naphthalen-1-yl}-methyl)-1H-pyrrolo[2,3-b]pyridine-2-carboxylic acid] | – | 500 to 3000 nM | –
NCc1ccc2cc(C(=O)NCCN3CCOCC3)n(Cc3cc(NS(=O)(=O)Cc4ccsc4)cc4ccccc34)c2n1 [Compound 173, 6-(aminomethyl)-N-[2-(morpholin-4-yl)ethyl]-1-({3-[(thiophen-3-yl)-methanesulfonamido]-naphthalen-1-yl}meth-yl)-1H-pyrrolo[2,3-b]-pyridine-2-carboxamide] | ≤ 100 nM | – | –

The next lines start with results.

Ki [1] | Ki [2] | SMILES | further results
– | ≤ 100 nM | Cc1cccc(C)c1CS(=O)(=O)Nc1cc(Cn2c(C(=O)OCCC3CCN(C)CC3)cc3ccc(CN)cc32)c2ccccc2c1 [Compound 377, 2-(1-methylpiperidin-4-yl)ethyl 6-(aminometh-yl)-1-({3-[(2,6-dimethyl-phenyl)methanesulfon-amido]naphthalen-1-yl}-methyl)-1H-indole-2-carboxylate] | –
≤ 100 nM | – | NCc1ccc2cc(C(=O)OCCN3CCOCC3)n(Cc3cc(NS(=O)(=O)Cc4ccsc4)cc4ccccc34)c2n1 [Compound 168, 2-(morpholin-4-yl)ethyl 6-(aminomethyl)-1-({3-[(thiophen-3-yl)methane-sulfonamido]naphthalen-1-yl}methyl)-1H-pyr-rolo[2,3-b]pyridine-2-carboxylate] | –
≤ 100 nM | – | CN1CCN(CCOC(=O)c2cc3ccc(CN)nc3n2Cc2cc(NS(=O)(=O)Cc3ccccc3)cc3ccccc23)CC1 [Compound 135, 2-(4-methylpiperazin-1-ylethyl 6-(aminomethyl)-1-{[3-(phenylmethane-sulfonamido)naphthalen-1-yl]methyl}-1H-pyrrolo-[2,3-b]pyridine-2-car-boxylate] | –
100 to 500 nM | – | CN1CCC[C@H](OC(=O)c2cc3ccc(CN)nc3n2Cc2cc(NS(=O)(=O)Cc3ccccc3)cc3ccccc23)C1 (racemic) [Compound 99, 1-methylpiperidin-3-yl 6-(aminomethyl)-1-{[3-(phenylmethanesulfon-amido)naphthalen-1-yl]-methyl}-1H-pyrrolo[2,3-b]pyridine-2-carboxylate] | –
≤ 100 nM | – | NCc1ccc2cc(C(=O)OCCN3CCCC3)n(Cc3cc(NS(=O)(=O)Cc4ccsc4)cc4ccccc34)c2n1 [Compound 177, 2-(pyrrolidin-1-yl)ethyl 6-(aminomethyl)-1-({3-[(thiophen-3-yl)methane-sulfonamido]naphthalen-1-yl}methyl)-1H-pyr-rolo[2,3-b]pyridine-2-carboxylate] | –
– | 100 to 500 nM | CC(C)(C)n1cncc1COC(=O)c1cc2ccc(CN)cc2n1Cc1cc(NS(=O)(=O)Cc2ccccc2)cc2ccccc12 [Compound 386, (1-tert-butyl-1H-imid-azol-5-yl)methyl 6-(aminomethyl)-1-{[3-(phenylmethanesulfon-amido)naphthalen-1-yl]-methyl}-1H-indole-2-carboxylate] | –
≤ 100 nM | – | Cc1cccc(C)c1CS(=O)(=O)Nc1cc(Cn2c(C(=O)OCC3CCN(C)CC3)cc3ccc(CN)nc32)c2ccccc2c1 [Compound 188, (1-methylpiperidin-4-yl)methyl 6-(aminometh-yl)-1-({3-[(2,6-dimethyl-phenyl)methanesulfon-amido]naphthalen-1-yl}-methyl)-1H-pyrrolo[2,3-b]pyridine-2-carboxylate] | –
– | 100 to 500 nM | NCc1ccc2cc(C(=O)O)n(Cc3cc(NS(=O)(=O)CC[C@@H]4CCCN4)cc4ccccc34)c2c1 [Compound 389, 6-(aminomethyl)-1-[(3-{2-[(2S)-pyrrolidin-2-yl]ethanesulfonamido}-naphthalen-1-yl)methyl]-1H-indole-2-carboxylic acid] | –
– | 100 to 500 nM | NCc1ccc2cc(C(=O)Nc3nnn[nH]3)n(Cc3cc(NS(=O)(=O)Cc4ccccc4)cc4ccccc34)c2c1 [Compound 372, 6-(aminomethyl)-1-((3-((phenylmethyl)sulfonamido)naphthalen-1-yl)methyl)-N-(1H-tetrazol-5-yl)-1H-indole-2-carboxamide] | –
≤ 100 nM | – | CN1CCC(COC(=O)c2cc3ccc(CN)nc3n2Cc2cc(NS(=O)(=O)[C@H](F)c3ccccc3)cc3ccccc23)CC1 (racemic) [Compound 23, (1-methylpiperidin-4-yl)methyl 6-(amino-methyl)-1-({3-[fluoro-(phenyl)methanesulfon-amido]naphthalen-1-yl}-methyl)-1H-pyrrolo[2,3-b]pyridine-2-carboxylate] | –

Source: patent US20240400553A1, “AMINE BASED MATRIPTASE 2 INHIBITORS AND USES THEREOF” (Disc Medicine, Inc., priority 2023, published 2024)
